Reference: patent US6541194B2, “Method for the detection of the presence of chemical species known to inhibit a chemiluminescent reaction” (Neogen Corporation, priority 2000, dated 2003)

Molecular target: T1, luciferase (Photinus pyralis, UniProt P08659)
T1 construct: purchased Analytical Luminescent Laboratories (ALL), Sparks, Md. #2005
Assay: luciferin-luciferase chemiluminescent reaction with reactant mixture dried on reagent disc
Format: biochemical
Source text: As discussed above, the inherent chemical and mechanical stability of the polymeric material is ideally suited for use as a medium on which to load the chemiluminescent reagents for the practice of the present invention. A number of commercial enterprises market luciferin-luciferase reagent kits for use in chemiluminescent reaction assays. One that the inventors have found to be particularly well suited for the practice of the present invention is the “Firelight®” luciferin-luciferase reagent kit provided by Analytical Luminescent Laboratories (ALL) of Sparks, Md. […] This provides for a greater intensity of luminescence, and faster reaction kinetics.
In the preparation of the reagent discs 48, the reactant concentrate is loaded, preferably drop-wise, onto the Merocel® CF50, obtained in pre-sterilized sheets. The coated sheets are then dried at ambient temperatures under a vacuum, and the reagent discs are cut from the sheets in an appropriate size and shape. Alternatively, discs may be cut first and then loaded with appropriate reagent solution. When loaded in such fashion with the reagent mixture, reagent discs, approximately 6 mm in diameter and approximately 1.5 mm in height, carry approximately 0.5 mg of the dried reactant mixture.
It is recognized in the prior art that trehalose will stabilize delicate materials while they are freeze-dried. […]

T1 sequence (P08659 whole entry): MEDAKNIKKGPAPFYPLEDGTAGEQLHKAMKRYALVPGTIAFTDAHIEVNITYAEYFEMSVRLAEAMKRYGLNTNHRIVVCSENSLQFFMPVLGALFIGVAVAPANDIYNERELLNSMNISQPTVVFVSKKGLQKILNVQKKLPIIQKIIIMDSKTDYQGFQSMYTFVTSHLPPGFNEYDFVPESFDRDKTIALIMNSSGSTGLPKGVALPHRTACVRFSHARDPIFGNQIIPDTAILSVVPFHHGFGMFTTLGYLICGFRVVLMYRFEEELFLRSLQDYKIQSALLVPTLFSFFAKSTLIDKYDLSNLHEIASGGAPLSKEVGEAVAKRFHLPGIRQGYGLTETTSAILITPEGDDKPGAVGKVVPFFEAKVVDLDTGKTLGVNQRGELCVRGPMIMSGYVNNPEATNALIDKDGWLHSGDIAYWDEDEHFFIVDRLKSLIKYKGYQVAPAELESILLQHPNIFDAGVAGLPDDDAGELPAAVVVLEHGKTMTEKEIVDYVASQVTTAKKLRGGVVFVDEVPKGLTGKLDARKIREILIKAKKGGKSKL

Compound: OC[C@H]1O[C@H](O[C@H]2O[C@H](CO)[C@@H](O)[C@H](O)[C@H]2O)[C@H](O)[C@@H](O)[C@@H]1O [trehalose, a-D-glucopyranosyl-a-D-glucopyranoside]
- observed luminescent intensities versus the same loading of reagents without the trehalose (6 mm×1.5 mm reagent disc, total loading approximately 4 mg, FIG. 12): more than twice
- biochemical activity of the luciferase component of the reagent mixture (trehalose added to loading solution at levels approaching its saturation solubility): up to a doubling, or more
